19 compounds from patent US8735414B2 (priority 2009, dated 2014) can be followed below.

Data set [1] deals with bicistronic HCV replicon (replicon RNA, GenBank Accession No. AJ242654). The data set is described as follows: HCV Replicon Assay. The class given is cell-based. To be noted: Hepatitis C virus, 72 h, read-out: Replicon IC50. Background: Replicon systems follow genome replication, usually without infectious particles.

pIC50: −log10 of the molar value. A value given as a limit tells only on which side of the number the result lay.

What is called pIC50 is the negative decadic logarithm of the IC50, by convention in mol/L. By melting point is commonly meant the temperature, or range, at which the solid turns liquid. `N#Cc1c(-c2ccc(S(=O)(=O)NC(CF)CF)cn2)n(CC2CC2)c2cc(Cl)c(F)cc12` [compound 110, 6-[6-chloro-3-cyano-1-(cyclopropylmethyl)-5-fluoro-1H-indol-2-yl]-N-(1,3-difluoropropan-2-yl)pyridine-3-sulfonamide] came in with a melting point of 202 to 204 °C. Besides, in data set [1], the pIC50 is greater than 6.30.
`N#Cc1c(-c2ccc(S(=O)(=O)NC(CF)CF)cn2)n(C2CCC2)c2cc(OC(F)(F)F)ccc12` [compound 24, 6-[3-cyano-1-cyclobutyl-6-(trifluoromethoxy)-1H-indol-2-yl]-N-(1,3-difluoropropan-2-yl)pyridine-3-sulfonamide] had a melting point of 158 to 160 °C. In addition, in data set [1], the pIC50 is greater than 6.30.
Take `Cc1ccc2c(C#N)c(-c3ncc(S(=O)(=O)N[C@H](C)C(F)(F)F)cn3)n(C3CCCC3)c2c1` [compound 182, 2-(3-cyano-1-cyclopentyl-6-methyl-1H-indol-2-yl)-N-[(2R)-1,1,1-trifluoropropan-2-yl]pyrimidine-5-sulfonamide]: the melting point lay within 116 to 118 °C. Moreover, the pIC50 in data set [1] was greater than 6.30.
For the compound `CCCn1c(-c2ccc(S(=O)(=O)N[C@@H](C)C(F)(F)F)cn2)c(C#N)c2cc(F)c(OC(F)F)cc21` [compound 786, 6-[3-cyano-6-(difluoromethoxy)-5-fluoro-1-propyl-1H-indol-2-yl]-N-[(2S)-1,1,1-trifluoropropan-2-yl]pyridine-3-sulfonamide], the melting point lay within 162 to 168 °C. In addition, the pIC50 in data set [1] is greater than 6.30.
On the same counts, the results for `Cc1ccc2c(c1)c(C#N)c(-c1ccc(S(=O)(=O)N[C@@H](C)C(F)(F)F)cn1)n2-c1ncccc1F` [compound 844, 6-[3-cyano-1-(3-fluoropyridin-2-yl)-5-methyl-1H-indol-2-yl]-N-[(2S)-1,1,1-trifluoropropan-2-yl]pyridine-3-sulfonamide] are 216 to 220 °C and greater than 6.30.
For the compound `CCc1cc2c(cc1F)c(C#N)c(-c1cc(C)c(S(=O)(=O)N[C@@H](C)C(F)(F)F)cn1)n2-c1ccccn1` [compound 852, 6-[3-cyano-6-ethyl-5-fluoro-1-(pyridin-2-yl)-1H-indol-2-yl]-4-methyl-N-[(2S)-1,1,1-trifluoropropan-2-yl]pyridine-3-sulfonamide], the melting point lay within 178 to 183 °C. Also, the pIC50 in data set [1] is greater than 6.30.
Regarding `Cc1cc2c(cc1Cl)c(C(N)=O)c(-c1ccc(S(=O)(=O)N[C@H](C)C(F)(F)F)cn1)n2C1CCC1` [compound 735, 5-chloro-1-cyclobutyl-6-methyl-2-(5-{[(2R)-1,1,1-trifluoropropan-2-yl]sulfamoyl}pyridin-2-yl)-1H-indole-3-carboxamide], the melting point was 208 to 210 °C. Also, the pIC50 in data set [1] is greater than 6.30.
In turn, `Cc1cc2c(cc1F)c(C(N)=O)c(-c1ccc(S(=O)(=O)N[C@@H](C)C(F)(F)F)cn1)n2-c1cnccn1` [compound 875, 5-fluoro-6-methyl-1-(pyrazin-2-yl)-2-(5-{[(2S)-1,1,1-trifluoropropan-2-yl]sulfamoyl}pyridin-2-yl)-1H-indole-3-carboxamide] showed a melting point of 162 to 169 °C. In addition, the pIC50 in data set [1] is greater than 6.30.
For `Cc1ccc2c(C#N)c(-c3ncc(S(=O)(=O)NC(CF)CF)cn3)n(C3CCCC3)c2c1` [compound 135, 2-(3-cyano-1-cyclopentyl-6-methyl-1H-indol-2-yl)-N-(1,3-difluoropropan-2-yl)pyrimidine-5-sulfonamide] the same measures were 229 to 231 °C and greater than 6.30.
For `Cc1cc2c(cc1F)cc(-c1ccc(S(=O)(=O)N[C@@H](C)C(F)(F)F)cn1)n2-c1nccs1` [compound 903, 6-[5-fluoro-6-methyl-1-(1,3-thiazol-2-yl)-1H-indol-2-yl]-N-[(2S)-1,1,1-trifluoropropan-2-yl]pyridine-3-sulfonamide] the same measures were 224 to 230 °C and greater than 6.30.
For `CCS(=O)(=O)Nc1ccc(-c2c(C#N)c3ccc(OC)cc3n2C2CCC2)nn1` [compound 277, N-[6-(3-cyano-1-cyclobutyl-6-methoxy-1H-indol-2-yl)pyridazin-3-yl]ethanesulfonamide] the same measures were 212 to 214 °C and greater than 6.30.
Take `C[C@H](NS(=O)(=O)c1cnc(-c2c(C#N)c3ccc(C4CC4)cc3n2C2CCC2)nc1)C(F)(F)F` [compound 324, 2-(3-cyano-1-cyclobutyl-6-cyclopropyl-1H-indol-2-yl)-N-[(2S)-1,1,1-trifluoropropan-2-yl]pyrimidine-5-sulfonamide]: the melting point lay in the range of 214 to 215 °C. For the same compound, the pIC50 in data set [1] is greater than 6.30.
For `Cc1ccc2c(C#N)c(-c3ccc(S(=O)(=O)NC4(C(F)(F)F)CC4)cn3)n(C3CCC3)c2c1` [compound 256, 6-(3-cyano-1-cyclobutyl-6-methyl-1H-indol-2-yl)-N-[1-(trifluoromethyl)cyclopropyl]pyridine-3-sulfonamide], the melting point was 189 to 194 °C. Moreover, in data set [1], the pIC50 is greater than 6.30.
On the same counts, the results for `C[C@H](NS(=O)(=O)c1ccc(-c2c(C#N)c3cc(F)c(OC(F)F)cc3n2CCO)nc1)C(F)(F)F` [compound 940, 6-[3-cyano-6-(difluoromethoxy)-5-fluoro-1-(2-hydroxyethyl)-1H-indol-2-yl]-N-[(2S)-1,1,1-trifluoropropan-2-yl]pyridine-3-sulfonamide] are 203 to 208 °C and 5.70 to 6.30.
On the same counts, the results for `CC(C)NS(=O)(=O)c1cnc(-c2c(C(N)=O)c3cc(Cl)ccc3n2C2CCC2)nc1` [compound 745, 5-chloro-1-cyclobutyl-2-[5-(propan-2-ylsulfamoyl)pyrimidin-2-yl]-1H-indole-3-carboxamide] are 245 to 247 °C and greater than 6.30.
`Cc1cc2c(cc1F)c(C#N)c(-c1ccc(S(=O)(=O)N[C@@H](C)C(F)(F)F)cn1)n2-c1ncc(CO)s1` [compound 984, 6-{3-cyano-5-fluoro-1-[5-(hydroxymethyl)-1,3-thiazol-2-yl]-6-methyl-1H-indol-2-yl}-N-[(2S)-1,1,1-trifluoropropan-2-yl]pyridine-3-sulfonamide] came in with a melting point of 180 to 185 °C. The pIC50 in data set [1] was greater than 6.30.
For `CC(C)(NS(=O)(=O)c1ccc(-c2c(C#N)c3ccc(OC(F)F)cc3n2-c2ncccn2)nc1)C(F)(F)F` [compound 663, 6-[3-cyano-6-(difluoromethoxy)-1-(pyrimidin-2-yl)-1H-indol-2-yl]-N-(1,1,1-trifluoro-2-methylpropan-2-yl)pyridine-3-sulfonamide] the same measures were 179 to 180 °C and 5.70 to 6.30.
In turn, `CC(C)c1ccc2c(C#N)c(-c3ccc(S(=O)(=O)NC(CF)CF)cn3)n(CC3CC3)c2c1` [compound 460, 6-[3-cyano-1-(cyclopropylmethyl)-6-(propan-2-yl)-1H-indol-2-yl]-N-(1,3-difluoropropan-2-yl)pyridine-3-sulfonamide] gave a melting point of 132 to 134 °C. For the same compound, in data set [1], the pIC50 is greater than 6.30.
On the same counts, the results for `Cc1cc2c(cc1F)c(C#N)c(-c1ccc(S(=O)(=O)N[C@@H](C)C(F)(F)F)cn1)n2C1CCCCC1` [compound 678, 6-(3-cyano-1-cyclohexyl-5-fluoro-6-methyl-1H-indol-2-yl)-N-[(2S)-1,1,1-trifluoropropan-2-yl]pyridine-3-sulfonamide] are 224 to 229 °C and greater than 6.30.
